Experiments:
[1] = tested on: female Sprague Dawley rats; conditions: female, Sprague Dawley, rat, in vivo
[2] = tested on: MC-38 colon adenocarcinoma tumors; assay: Antitumor efficacy in syngeneic MC-38 colon adenocarcinoma tumor-bearing mice; type: in vivo, C57BL/6 mice; conditions: MC-38 tumor-bearing mice; for Median Survival (days): not reached = more than 50% of animals alive at end of study (Day 66), 50 mg/kg
Protocol: Female C57BL/6 bearing syngeneic MC-38 colon adenocarcinoma tumors (n=8/group, implanted on Day 0) were administered test articles Compound 1 or anti-PD-1, as monotherapy or in combination, starting on Day 10. As monotherapy, anti-PD-1 was administered twice weekly (BIW) for 2 consecutive weeks by intraperitoneal (IP) injection at 200 μg/mouse (Days 10, 13, 17, and 20). As monotherapy, Compound 1 was administered twice daily (BID) at 50 mg/kg by oral gavage (PO) for 28 consecutive days (Days 10-37). As combination therapy with anti-PD-1 (administered at the dose and schedule indicated above), Compound 1 was administered BID at 50 mg/kg PO for 1) 7 consecutive days (Days 10-16); 2) 14 consecutive days (Days 10-23); 3) 21 consecutive days (Days 10-30); 4) 28 consecutive days (Days 10-37); or, 5) 7 consecutive days on the first and third week of dosing (Days 10-16 and Days 24-30). This set of cohorts was used to determine both the tolerability and efficacy of Compound 1 treatment across dosing schedules, as well as ocular toxicity upon recovery on Day 66.
For initial tumor outgrowth, a suspension of 1×10^6 MC-38 cells in a volume of 100 μL PBS was implanted subcutaneously on the right flank of the animal near the axillary region. Animals were then randomly assigned to treatment groups. Treatment was initiated on day 10 after MC-38 tumor cell inoculation to allow for a sufficient treatment window (Table 1).
Anti-PD-1 was administered twice weekly (BIW) for 2 consecutive weeks by intraperitoneal (IP) injection at 200 μg/mouse. Compound 1 was administered twice daily (BID) for 28 consecutive days by oral gavage (PO) at 50 mg/kg in 10 mL/kg dose volume (with or without anti-PD-1 administered on the above indicated dose and schedule). Alternatively, Compound 1 was administered BID for 7, 14 or 21 consecutive days, or on Days 10-16 and Days 24-30 in combination with anti-PD-1. Concomitantly, a set of satellite cohorts comprising tumor-naïve mice was treated with the same schedules and doses as indicated above.
Animals were monitored for tumor growth and body weight 2-3 times per week based on outgrowth kinetics. Tumor diameter was measured with digital calipers, and the tumor volume in mm^3 was calculated by the formula: Volume=((width)^2×length)/2. Animals were removed from study if found moribund or if tumor volume exceeded 1500 mm^3. […] Food, water, temperature and humidity were according to Pharmacology Testing Facility performance standards (SOPs) which are in accordance with the 1996 Guide for the Care and Use of Laboratory Animals (NRC) and AAALAC-International.
The murine MC-38 colon adenocarcinoma cell line was developed in C57BL/6 mice upon subcutaneous injection of dimethylhydrazine (Corbett, T. H., Griswold, D. P., et al. (1975), Cancer Research 35, 2434-2439). Extensive immunogenomic, transcriptomic, and therapeutic background are available on this cell line (Yadav, M., Jhunjhunwala, S., et al. (2014) Nature, 515, 572-576; and Efremova, M., Rieder, D., et al. (2018) Nat. Commun. 9, 32). The MC-38 cell line is reported to harbor driver mutations in TP53, PTEN, SMAD2, SMAD4, ACVR2A, TGFB2, BRAF, AXIN, SOX9, and ARID1A. Furthermore, mutations in the MMR gene MSH3 indicate that this cell line is a model of human MSI/hypermutated colorectal cancer. Whole exome sequencing has also identified 1290 transcript coding variations (compared to the reference C57BL/6 genome), among which 170 were predicted to be MHC Class I-presented neo-epitopes.
MC-38 (National Cancer Institute-Frederick Tumor Repository, Frederick, Md.) cells were grown in a humidified atmosphere of 5% CO2 using DMEM growth media (Gibco Life Technologies, 11965-092) supplemented with 10% fetal bovine serum (HyClone SH30071.03, Logan, Utah) and 100 U/mL penicillin, 100 μg/mL streptomycin (Gibco Life Technologies, 15140-122). Cells were confirmed murine virus and mycoplasma negative (IDEXX Laboratories Inc, Columbia, Mo.) prior to implantation. […]

[3] = Tolerability (body weight loss, deaths) in tumor-naive cohorts; type: in vivo; conditions: tumor-naive mice
Protocol: Anti-PD-1 was administered twice weekly (BIW) for 2 consecutive weeks by intraperitoneal (IP) injection at 200 μg/mouse. […] Concomitantly, a set of satellite cohorts comprising tumor-naïve mice was treated with the same schedules and doses as indicated above. […]

[4] = Compound 1 50 mg/kg PO BID Days 10-16 (7 days) in combination with anti-PD-1 200 μg IP BIW (Days 10, 13, 17, 20)
[5] = Compound 1 50 mg/kg PO BID Days 10-16 and Days 24-30 (interval schedule) in combination with anti-PD-1 200 μg IP BIW (Days 10, 13, 17, 20)
[6] = Compound 1 50 mg/kg PO BID Days 10-23 (14 days) in combination with anti-PD-1 200 μg IP BIW (Days 10, 13, 17, 20)
[7] = Compound 1 50 mg/kg PO BID Days 10-30 (21 days) in combination with anti-PD-1 200 μg IP BIW (Days 10, 13, 17, 20)
[8] = Compound 1 50 mg/kg PO BID Days 10-37 (28 days) in combination with anti-PD-1 200 μg IP BIW (Days 10, 13, 17, 20)
[9] = Compound 1 monotherapy, 50 mg/kg PO BID Days 10-37 (28 days)
[10] = Compound 1 50 mg/kg PO BID Days 10-16/24-30 in combination with anti-PD-1 200 μg IP BIW
[11] = Compound 1 50 mg/kg PO BID Days 10-16 in combination with anti-PD-1 200 μg IP BIW
[12] = Compound 1 50 mg/kg PO BID Days 10-23 in combination with anti-PD-1 200 μg IP BIW
[13] = Compound 1 50 mg/kg PO BID Days 10-30 in combination with anti-PD-1 200 μg IP BIW
[14] = Compound 1 50 mg/kg PO BID Days 10-37 in combination with anti-PD-1 200 μg IP BIW
[15] = Compound 1 monotherapy, 50 mg/kg PO BID Days 10-37

With `CC(C)n1cc(C(=O)Nc2ccc(Oc3ccnc4[nH]nc(N[C@H](C)CO)c34)c(F)c2)c(=O)n(-c2ccc(F)cc2)c1=O` [Compound 1, (R)—N-(3-fluoro-4-((3-((1-hydroxypropan-2-yl)amino)-1H-pyrazolo[3,4-b]pyridin-4-yl)oxy)phenyl)-3-(4-fluorophenyl)-1-isopropyl-2,4-dioxo-1,2,3,4-tetrahydropyrimidine-5-carboxamide] the “therapeutic multiples compared to expected exposure at the starting dose of 25 mg QD” value [1] was 39-78, the “STD10 for 14 days once daily dose administration” value ([1]; 14 days) was 100 mg/kg and the “% TGI on Day 32” value [2, 4] was 96.6%. For the same compound, the “Cures on Day 66” value [2, 4] was 6/8, the “Median Survival (days)” value ([2]; Compound 1 50 mg/kg PO BID Days 10-16 (7 days) in combination with anti-PD-1 200 μg IP BIW) was “not reached” and the “% TGI on Day 32” value [2, 5] was 96.2%. For the same compound, the “Cures on Day 66” value [2, 5] was 4/8, the “Median Survival (days)” value ([2]; Compound 1 50 mg/kg PO BID Days 10-16 and Days 24-30 (interval schedule) in combination with anti-PD-1 200 μg IP BIW) was “not reached” and the “% TGI on Day 32” value [2, 6] was 97.1%. The “Cures on Day 66” value [2, 6] was 3/8, the “Median Survival” value [2, 6] was 66 days and the “% TGI on Day 32” value [2, 7] was 98.5%. The “Cures on Day 66” value [2, 7] was 3/8, the “Median Survival (days)” value ([2]; Compound 1 50 mg/kg PO BID Days 10-30 (21 days) in combination with anti-PD-1 200 μg IP BIW) was “not reached” and the “% TGI on Day 32” value [2, 8] was 99.3%. For the same compound, the “Cures on Day 66” value [2, 8] was 5/7, the “Median Survival (days)” value ([2]; Compound 1 50 mg/kg PO BID Days 10-37 (28 days) in combination with anti-PD-1 200 μg IP BIW) was “not reached” and the “% TGI on Day 32” value [2, 9] was 95.6%. For the same compound, the “Cures on Day 66” value [2, 9] was 0/6, the “Median Survival” value [2, 9] was 66 days and the “Deaths (any cause)” value [3, 10] was 0/5. For the same compound, the “Maximum % Body Weight Loss” value [3, 10] was 0.00%, the “Deaths (any cause)” value [3, 11] was 0/5 and the “Maximum % Body Weight Loss” value [3, 11] was 0.00%. For the same compound, the “Deaths (any cause)” value [3, 12] was 1/5, the “Maximum % Body Weight Loss” value [3, 12] was 0.00% and the “Deaths (any cause)” value [3, 13] was 1/5. For the same compound, the “Maximum % Body Weight Loss” value [3, 13] was 0.00%, the “Deaths (any cause)” value [3, 14] was 0/5 and the “Maximum % Body Weight Loss” value [3, 14] was 0.00%. The “Deaths (any cause)” value [3, 15] was 0/5 and the “Maximum % Body Weight Loss” value [3, 15] was 0.00%.
